Values quoted from earlier work, collected in publication PMC10766353, “Oral FXIIa inhibitor KV998086 suppresses FXIIa and single chain FXII mediated kallikrein kinin system activation” (Frontiers in Pharmacology, 2023).
Where two headings read alike, the source gives them in different places.

B1: lanadelumab: monoclonal antibody PKa inhibitor (antibody, chains of the INN, looked up, V domains shown)
VH: EVQLLESGGGLVQPGGSLRLSCAASGFTFSHYIMMWVRQAPGKGLEWVSGIYSSGGITVYADSVKGRFTISRDNSKNTLYLQMNSLRAEDTAVYYCAYRRIGVPRRDEFDIWGQGTMVTVSS
VL: DIQMTQSPSTLSASVGDRVTITCRASQSISSWLAWYQQKPGKAPKLLIYKASTLESGVPSRFSGSGSGTEFTLTISSLQPDDFATYYCQQYNTYWTFGQGTKVEIK

Key:
HAE attacks [1] = system: HAE attacks; set-up: method as in Craig et al., 2023; conditions: six-month study, ref Craig et al., 2023
HAE attacks [2] = system: HAE attacks; set-up: method as in Banerji et al., 2018; conditions: 26-week phase 3 study; ref Banerji et al., 2018

Molecule	HAE attack reduction (HAE attacks [1]; monthly administration)	patients attack free (HAE attacks [1])	HAE attack reduction (HAE attacks [2])	patients attack free (HAE attacks [2])
garadacimab: a monoclonal antibody that inhibits FXIIa	87%	62%		
B1			87%	44%
